Data as given in US10457700B2, “Platinum prodrugs and methods of making and using thereof” (UNIVERSITY OF GEORGIA RESEARCH FOUNDATION, INC., priority 2015, dated 2019).

How the values were obtained:
[1] = system: PC3 cells; experiment: MTT cytotoxicity assay in PC3 cells; assay type: cell-based, human
Method: (§1) Human prostate cancer cell line PC3 and DU145 were procured from the American type culture collection (ATCC). Ovarian cancer A2780 cells were obtained from Prof, Robert Brown, Imperial College London. […] Cells were passed every 3 to 4 days and restarted from frozen stocks upon reaching 20 passages.
(§2) PC3, A2780, or A2780/CP70 cells (2000 cells/well/100 μL) were seeded on a 96-well plate in 100 μL of desired medium and incubated for 24 h. After 24 h, media was removed and fresh media was added. The cells were treated with different constructs at varying concentrations and incubated for 72 h at 37° C. in 5% CO2. The cells were then treated with 20 μL of MTT (5 mg/mL in PBS) for 5 h. The medium was removed, the cells were lysed with 100 μL of DMSO, and the absorbance of the purple formazan was recorded at 550 nm using a Bio-Tek Synergy HT microplate reader. The background absorbance for each well was measured at 800 nm. Each well was performed in triplicate. […] Cells were grown for 7 days in high glucose medium prior to the MTT experiment. Cytotoxicity was expressed as mean percentage increase relative to the unexposed control±SD. Control values were set at 0% cytotoxicity or 100% cell viability.

[2] = system: A2780/CP70 cells; experiment: MTT cytotoxicity assay in cisplatin resistant A2780/CP70 cells; assay type: cell-based, human; conditions: 72 h
Method: as §1, §2

[3] = system: intracellular GSH in A2780/CP70 cells; experiment: Cellular GSH assay with ThiolTracker Violet, flow cytometry; assay type: cell-based, human; conditions: 10 μM, 12 h
Method: The ability of Platin-B to interact with intracellular GSH in A2780/CP70 cells was investigated using the ThiolTracker Violet GSH detection reagent. Specifically, A2780/CP70 cells (4×10^5 cells/well/2 mL) were plated onto 6 well culture plates and allowed to grow overnight. […] After 12 h, both the attached and detached cells were collected by trypsinization, washed with PBS, and resuspended in Dulbecco's PBS (D-PBS) containing Ca^2+ and Mg^2+, glucose, and sodium pyruvate. The cells were then incubated with 10 μM (final concentration) ThiolTracker Violet for 30 min at 37° C. The cells were then washed with D-PBS, resuspended in buffer, and immediately analyzed on a flow cytometer with 405 nm excitation and 525 nm emission filters. The ThiolTracker Violet stain is a highly thiol reactive fluorescent probe and can be utilized in effective detection of intracellular GSH by quantitative detection modalities such as flow cytometry.

[4] = system: mitochondrial respiration of A2780/CP70 cells; experiment: MitoStress test, Seahorse XF24 (OCR); assay type: cell-based, human; conditions: 1 μM, 24 h
From the text: Prior to the assay, XF sensor cartridges were hydrated. […] The parameters calculated included: basal respiration (baseline respiration minus antimycin-A post injection respiration), ATP turnover (baseline respiration minus oligomycin post injection respiration), maximal respiratory capacity (FCCP stimulated respiration minus antimycin-A post injection respiration) and reserve respiratory capacity (FCCP stimulated respiration minus baseline respiration).

[5] = system: citrate synthase activity in A2780/CP70 cells; experiment: Citrate synthase activity assay; assay type: cell-based, human; conditions: 1 μM, 24 h
Method: Citrate synthase activity assay was performed by following the instruction given in MitoCheck Citrate Synthase Activity assay kit (Cayman item no. 701040). Briefly, A2780/CP70 cells were seeded at a density of 1.2×10^6 cells/7 mL in 25 cm^2 cell culture flask and grown overnight. […] The cells were then scraped in presence of fresh media and centrifuged to obtain the cell pellet. The resultant pellet was washed 2 times with 1×PBS and solubilized in 200 μL extraction buffer. This cell suspension was incubated on ice for 20 min followed by centrifugation at 16000×g for 20 minutes at 4° C. The supernatant was collected and used for measuring the citrate synthase activity after 1:200 dilutions. Protein concentration in the samples was measured using BCA assay. […] Finally 20 μL of the substrate oxaloacetate from tube B was added to each well and absorbance was recorded immediately at 412 nm (50 seconds interval for 30 min at room temperature). The citrate synthase activity was calculated through the kinetic plot obtained from the time (min) vs. optical density (OD=412 nm) using the formula: CS Activity=(ΔA412 min−1/5.712 mM−×0.1 mL/0.03 mL)×sample dilution nmoles/min/mL. […]

[6] = system: A2780/CP70 cells; experiment: Apoptosis detection by Annexin V-PI assay; assay type: cell-based, human; conditions: 50 μM, 12 h
Method: Enhanced activity of Platin-B in A2780/CP70 cells was further confirmed by Annexin-V-propidium iodide (PI) apoptosis-necrosis assay. […] The cells were trypsinized, repeatedly washed collecting the supernatants, and centrifuged at 754×g for 3 min, and the supernatants were collected. Cell density was determined and cells were resuspended in 1× annexinV-binding buffer to 1×10^6 cells/mL preparing a sufficient volume to have 100 μL per assay. To 100 μL of cell suspension, 5 μL ALEXA FLUOR™ 488 annexin V and 1 μL of 100 μg/mL PI working solution were added, incubated for 15 min at room temperature. After the incubation period, 400 μL of 1× annexin-binding buffer was added to each sample, samples were gently mixed keeping the samples on ice, and the samples were analyzed on the flow cytometer immediately.

[7] = Cyclic voltammetry, Pt(IV)/Pt(II) reduction potential; assay type: physicochemical; conditions: 0.1 M KCl
Method: Redox potential of platinum (IV) prodrugs play important roles in regulating efficacy. The disclosed Pt(IV) prodrugs can be activated selectively by intracellular reduction, preferably at the tumor sites to reduce side effects. Redox potential is a measure of the ability of Pt(IV) compounds to form the active platinum (II) species. Electrochemical measurements on Platin-B were carried out in dimethylformamide (DMF)-phosphate buffered saline (PBS) at pH 6.0 and 7.4. Specifically, a conventional three-electrode set-up comprising a glassy carbon working electrode, platinum wire auxiliary electrode, and Ag/AgCl (3M KCl) reference electrode was used for electrochemical measurements. The electrochemical data were uncorrected for junction potentials. KCl was used as a supporting electrolyte. Platin-B (2 mM) solutions were prepared in 40% DMF phosphate buffered saline (PBS) of pH 6.0 and 7.4 with 0.1 M KCl and voltammograms were recorded at different scan rates.

[8] = system: GST enzyme; experiment: GST enzymatic substrate competitive assay / cellular GST activity assay; assay type: biochemical; conditions: 50 or 100 μM, in buffer or A2780/CP70 cell lysates
Method: GST enzyme modulates GSH to attack on labile electrophilic halide containing molecules in cellular detoxification processes. […] GST enzymatic activity was evaluated by following the formation of GSH and 1-chloro-2,4-dinitrobenzene (CDNB) adduct.
This assay was performed according to the instruction given by the manufacturer (GST activity assay kit ab65326). AU the standard solutions were prepared as per the instruction. Samples were prepared in a total 50 μL volume with GST assay buffer, including a negative control with 50 μL of GST assay buffer only and a positive control (10 μL of GST positive control diluted to 1:50) and 40 μL of GST assay buffer only. Sample wells contained 10 μL of GST enzyme diluted to 1:50 and remaining of GST assay buffer. To each well, 5 μL GSH was added. 50 μL of substrate mix containing GST substrate CDNB (5 μL) was prepared. […] Then, 50 μL of substrate mix was added to each well including controls. The plate was stirred carefully to initiate the reaction and absorbance values were recorded once every minute at 340 nm using a plate reader to obtain 20 data points. GST activity was calculated through the kinetic plot obtained from the time (min) vs. optical density (OD340 nm) using the formula GST activity=ΔA340 min^−1/0.002777 μM·D/A, where D is the enzyme sample dilution factor and A is the enzyme sample volume added to each well. […]

SMILES | IC50 ([1]; Homo sapiens, PC-3, 72 h) | IC50 ([2]; Homo sapiens) | IC50 ([1]; 72 h) | IC50 [2] | effect on intracellular GSH levels [3] | effect on mitochondrial respiration (OCR) [4] | mitochondrial content by citrate synthase activity [5] | sensitivity of resistant cells (Annexin V-PI apoptosis-necrosis) [6] | Pt(IV)/Pt(II) couple reduction potential ([7]; pH 6.0, 40% DMF-PBS) | Pt(IV)/Pt(II) couple reduction potential ([7]; pH 7.4, 40% DMF-PBS) | GSH conjugation catalyzed by GST [8]
O=C(O)CCCCCBr [6-BH, 6-bromohexanoic acid] | > 100 µM | > 100 µM | – | – | – | – | – | – | – | – | –
N.N.[Cl][Pt][Cl] [Cisplatin, cis-diamminedichloridoplatinum(II), reference compound] | – | – | 14.4 ± 1.6 µM | 14.7 ± 0.9 µM | minimal effect | did not demonstrate such activities | – | – | – | – | –
[NH2][Pt]([NH2])([Cl])([Cl])([O]C(=O)CCCCCBr)[O]C(=O)CCCCCBr [Platin-B] | – | – | – | – | enhanced ability to reduce GSH levels | inhibited mitochondrial respiration significantly | lower mitochondrial content | high degree of sensitivity | ~−0.187 V vs. normal hydrogen electrode (NHE) | ~−0.217 V vs. normal hydrogen electrode (NHE) | more efficient
